According to patent publication US7504420B2, “Compounds which inhibit beta-secretase activity and methods of use” (CoMentis, Inc., priority 2005, dated 2009):

Experiments:
memapsin 2 = memapsin 2 (Homo sapiens, UniProt P56817); assay: Inhibition of memapsin 2 catalytic activity (Ki); format: biochemical; conditions: memapsin 2, pH 4, 37° C.; read-out: M2K
In short: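 Run at 37 °C and pH 4: compound and enzyme pre-incubated 20 min before FS-2 fluorogenic substrate started hydrolysis,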

cathepsin D = cathepsin D (Homo sapiens, UniProt P07339); assay: Inhibition of cathepsin D catalytic activity (Ki); format: biochemical; conditions: pH 4.0, 37° C., read-out: CDK
Experimental: A substrate peptide NH3-ELDLAVEFWHDR-CO2 (SEQ ID NO.:1) (used for inhibition assay of memapsin 2, memapsin 1, and cathepsin D) was dissolved at 2 mg/ml in DMSO and diluted 1:100 in 0.1 M sodium acetate, pH 4.0 just prior to assay. Inhibitor dissolved in DMSO was diluted into 0.1 M sodium acetate, pH 4.0 (1:100 dilution). A […] aliquot of the inhibitor solution in pH 4 buffer was combined with […] of 0.1 M sodium acetate containing 100-200 nM of memapsin 1, memapsin 2, or cathepsin D. Following a pre-incubation at 37° C., the proteolytic assay was initated by addition of […] of the substrate diluted into pH 4 buffer, and incubation continued at 37° C. Aliquots were removed at time intervals, and combined with an equal volume of MALDI-TOF matrix (α-hydroxycinnamic acid in acetone, 20 mg/ml) and immediately spotted in duplicate onto a stainless-steel MALDI sample plate. MALDI-TOF mass spectrometry was performed on a PE Biosystems Voyager DE instrument at the Molecular Biology Resource Center on campus. The instrument was operated at 25,000 accelerating volts in positive mode with a 150 ns delay. Ions with a mass-to-charge ratio (m/z) were detected in the range of 650-2000 atomic mass units. Data were analyzed by the Voyager Data Explorer module to obtain ion intensity data for mass species of substrates and corresponding products in a given mixture. Relative product formation was calculated as the ratio of signal intensity of the product to the sum of signal intensities of both product and the corresponding substrate. Relative product formed per unit time was obtained from non-linear regression analysis of the data representing the initial 15% formation of product using the model: 1−e^−kT, where k was the relative hydrolytic rate constant and T was time in seconds. Alternatively, relative hydrolytic rates were determined using a fluorogenic cleavage assay (Ermolieff, J. et al., Biochemistry, 39: 12450-12456 (2000)). Initial rates from either method were expressed relative to uninhibited controls and the inhibition constant Ki was determined by a non-linear fit to a tight-binding model of competitive inhibition (Bieth, J., Bayer-Symposium V: Proteinase Inhibitors, pp 463-469, Spinger-Varlag, Berlin (1994)). Results are shown in Table 1 above (M2K, CDK, and M1K columns represent, respectively, the K1 values obtained for memapsin 2, cathepsin D and memapsin 1).

[1] = test system: Aβ production in Chinese hamster ovary cells that over-express human APP695 with the London and Swedish mutations; assay: Cellular Aβ IC50 determination (Aβ40 sandwich ELISA); conditions: Cricetulus griseus, CHO, 24 h, read-out: Cell, Aβ40, CHO cells over-expressing human APP695 (London and Swedish mutations), 24 h

memapsin 2, sequence (P56817 46-501): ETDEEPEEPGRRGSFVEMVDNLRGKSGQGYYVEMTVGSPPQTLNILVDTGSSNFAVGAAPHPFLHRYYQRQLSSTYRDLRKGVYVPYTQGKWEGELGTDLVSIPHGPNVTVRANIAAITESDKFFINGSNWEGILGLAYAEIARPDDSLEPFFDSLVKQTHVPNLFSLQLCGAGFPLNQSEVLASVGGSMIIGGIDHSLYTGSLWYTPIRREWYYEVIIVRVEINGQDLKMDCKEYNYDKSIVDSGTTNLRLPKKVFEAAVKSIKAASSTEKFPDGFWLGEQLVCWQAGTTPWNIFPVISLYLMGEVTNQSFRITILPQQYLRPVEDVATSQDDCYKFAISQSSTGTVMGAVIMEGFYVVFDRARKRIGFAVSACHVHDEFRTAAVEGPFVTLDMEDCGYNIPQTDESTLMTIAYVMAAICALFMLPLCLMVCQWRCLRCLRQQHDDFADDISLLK
cathepsin D, sequence (P07339 65-412, species assumed): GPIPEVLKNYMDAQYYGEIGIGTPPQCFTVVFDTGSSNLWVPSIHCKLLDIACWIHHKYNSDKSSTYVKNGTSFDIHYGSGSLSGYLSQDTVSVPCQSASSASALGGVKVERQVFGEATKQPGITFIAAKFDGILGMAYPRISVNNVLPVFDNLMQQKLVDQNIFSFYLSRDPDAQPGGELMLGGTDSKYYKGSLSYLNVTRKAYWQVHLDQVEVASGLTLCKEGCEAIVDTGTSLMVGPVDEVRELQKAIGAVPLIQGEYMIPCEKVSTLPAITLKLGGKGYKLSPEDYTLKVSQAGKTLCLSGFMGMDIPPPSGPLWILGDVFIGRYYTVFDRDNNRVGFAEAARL

| SMILES | Ki (memapsin 2) [nM] | Ki (cathepsin D) [nM] | IC50 [1] [nM] |
| --- | --- | --- | --- |
| CC(C)c1cccc(CNCC(O)C(Cc2ccccc2)NC(=O)c2cc(C(=O)NC(C)c3ccccc3)cc(N(C)S(C)(=O)=O)c2)c1 (stereo not drawn) [N1-(3-hydroxy-4-(3-isopropylbenzylamino)-1-phenylbutan-2-yl)-5-(N-methylmethylsulfonamido)-N3-(1-phenylethyl)isophthalamide] | < 300 | < 300 | < 1000 |
| Cc1csc(CN(C)C(=O)c2cccc(C(=O)NC(Cc3ccccc3)C(O)CNCc3cccc(C(C)C)c3)c2)n1 (stereo not drawn) [N1-(3-hydroxy-4-(3-isopropylbenzylamino)-1-phenylbutan-2-yl)-N3-methyl-N3-((4-methylthiazol-2-yl)methyl)isophthalamide] | < 300 | < 300 | < 1000 |
| COc1cccc(CNCC(O)C(Cc2ccccc2)NC(=O)c2cc(C(=O)NC(C)c3ccccc3)c(C)cc2C)c1 (stereo not drawn) [N1-(3-hydroxy-4-(3-methoxybenzylamino)-1-phenylbutan-2-yl)-4,6-dimethyl-N3-(1-phenylethyl)isophthalamide] | 301 to 500 | < 300 | < 1000 |
| COc1cccc(CNCC(O)C(Cc2ccccc2)NC(=O)c2cc(C(=O)NC(C)c3nc(CO)co3)cc(N(C)S(C)(=O)=O)c2)c1 (stereo not drawn) [N1-(3-hydroxy-4-(3-methoxybenzylamino)-1-phenylbutan-2-yl)-N3-(1-(4-(hydroxymethyl)oxazol-2-yl)ethyl)-5-(N-methylmethylsulfonamido)isophthalamide] | < 300 | > 501 | < 1000 |
| COc1cccc(CNCC(O)C(Cc2ccccc2)NC(=O)c2cc(C(=O)NCc3cncc(O)c3)cc(N(C)S(C)(=O)=O)c2)c1 (stereo not drawn) [N1-(3-hydroxy-4-(3-methoxybenzylamino)-1-phenylbutan-2-yl)-N3-((5-hydroxypyridin-3-yl)methyl)-5-(N-methylmethylsulfonamido)isophthalamide] | > 501 | > 501 | < 1000 |
| COc1cccc(CNCC(O)C(Cc2ccccc2)NC(=O)c2cc(C(=O)N(C)Cc3nc(C)cs3)cc(N(C)S(C)(=O)=O)c2)c1 (stereo not drawn) [N1-(3-hydroxy-4-(3-methoxybenzylamino)-1-phenylbutan-2-yl)-N3-methyl-5-(N-methylmethylsulfonamido)-N3-((4-methylthiazol-2-yl)methyl)isophthalamide] | < 300 | < 300 | < 1000 |
| COc1cccc(CNCC(O)C(Cc2ccccc2)NC(=O)c2cccc(C(=O)N(C)C(C)c3nc(C)cs3)c2)c1 (stereo not drawn) [N1-(3-hydroxy-4-(3-methoxybenzylamino)-1-phenylbutan-2-yl)-N3-methyl-N3-(1-(4-methylthiazol-2-yl)ethyl)isophthalamide] | < 300 | < 300 | < 1000 |
| COc1cccc(CCNCC(O)C(Cc2ccccc2)NC(=O)c2cccc(C(=O)N(C)Cc3nc(C)cs3)c2)c1 (stereo not drawn) [N1-(3-hydroxy-4-(3-methoxyphenethylamino)-1-phenylbutan-2-yl)-N3-methyl-N3-((4-methylthiazol-2-yl)methyl)isophthalamide] | > 501 | 301 to 500 | > 5000 |
| COc1ccc(CCNCC(O)C(Cc2ccccc2)NC(=O)c2cc(C(=O)NC(C)c3ccccc3)cc(N(C)S(C)(=O)=O)c2)cc1 (stereo not drawn) [N1-(3-hydroxy-4-(4-methoxyphenethylamino)-1-phenylbutan-2-yl)-5-(N-methylmethylsulfonamido)-N3-(1-phenylethyl)isophthalamide] | < 300 | < 300 | < 1000 |
| CC(NC(=O)c1cc(C(=O)NC(Cc2ccccc2)C(O)CNCC2CCCN(C)C2)cc(N(C)S(C)(=O)=O)c1)c1ccccc1 (stereo not drawn) [N1-(3-hydroxy-4-((1-methylpiperidin-3-yl)methylamino)-1-phenylbutan-2-yl)-5-(N-methylmethylsulfonamido)-N3-(1-phenylethyl)isophthalamide] | > 501 | > 501 | > 5000 |
| Cc1cc(CNCC(O)C(Cc2ccccc2)NC(=O)c2cc(C(=O)NC(C)c3ccccc3)cc(N(C)S(C)(=O)=O)c2)on1 (stereo not drawn) [N1-(3-hydroxy-4-((3-methylisoxazol-5-yl)methylamino)-1-phenylbutan-2-yl)-5-(N-methylmethylsulfonamido)-N3-(1-phenylethyl)isophthalamide] | < 300 | < 300 | < 1000 |
| Cc1cc(CNCC(O)C(Cc2ccccc2)NC(=O)c2cccc(C(=O)N(C)Cc3nc(C)cs3)c2)on1 (stereo not drawn) [N1-(3-hydroxy-4-((3-methylisoxazol-5-yl)methylamino)-1-phenylbutan-2-yl)-N3-methyl-N3-((4-methylthiazol-2-yl)methyl)isophthalamide] | < 300 | > 501 | > 5000 |
| CC(C)Oc1cncc(CNCC(O)C(Cc2ccccc2)NC(=O)c2cc(C(=O)NC(C)c3ccccc3)cc(N(C)S(C)(=O)=O)c2)c1 (stereo not drawn) [N1-(3-hydroxy-4-((5-isopropoxypyridin-3-yl)methylamino)-1-phenylbutan-2-yl)-5-(N-methylmethylsulfonamido)-N3-(1-phenylethyl)isophthalamide] | < 300 | < 300 | < 1000 |
| CC(C)c1cncc(CNCC(O)C(Cc2ccccc2)NC(=O)c2cc(C(=O)NC(C)c3ccccc3)cc(N(C)S(C)(=O)=O)c2)c1 (stereo not drawn) [N1-(3-hydroxy-4-((5-isopropylpyridin-3-yl)methylamino)-1-phenylbutan-2-yl)-5-(N-methylmethylsulfonamido)-N3-(1-phenylethyl)isophthalamide] | < 300 | < 300 | < 1000 |
| Cc1cc(CNCC(O)C(Cc2ccccc2)NC(=O)c2cc(C(=O)NC(C)c3ccccc3)cc(N(C)S(C)(=O)=O)c2)no1 (stereo not drawn) [N1-(3-hydroxy-4-((5-methylisoxazol-3-yl)methylamino)-1-phenylbutan-2-yl)-5-(N-methylmethylsulfonamido)-N3-(1-phenylethyl)isophthalamide] | < 300 | < 300 | < 1000 |
| Cc1csc(CN(C)C(=O)c2cccc(C(=O)NC(Cc3ccccc3)C(O)CNCc3cc(C)on3)c2)n1 (stereo not drawn) [N1-(3-hydroxy-4-((5-methylisoxazol-3-yl)methylamino)-1-phenylbutan-2-yl)-N3-methyl-N3-((4-methylthiazol-2-yl)methyl)isophthalamide] | 301 to 500 | 301 to 500 | 1000 to 5000 |
| Cc1cncc(CNCC(O)C(Cc2ccccc2)NC(=O)c2cccc(C(=O)N(C)Cc3nc(C)cs3)c2)c1 (stereo not drawn) [N1-(3-hydroxy-4-((5-methylpyridin-3-yl)methylamino)-1-phenylbutan-2-yl)-N3-methyl-N3-((4-methylthiazol-2-yl)methyl)isophthalamide] | < 300 | < 300 | < 1000 |
| CC(NC(=O)c1cc(C(=O)NC(Cc2ccccc2)C(O)CNC(C)C2CCCCC2)cc(N(C)S(C)(=O)=O)c1)c1ccccc1 (stereo not drawn) [N1-(4-(1-cyclohexylethylamino)-3-hydroxy-1-phenylbutan-2-yl)-5-(N-methylmethylsulfonamido)-N3-(1-phenylethyl)isophthalamide] | < 300 | < 300 | < 1000 |
| COc1cccc(CNCC(O)C(Cc2ccccc2)NC(=O)c2cc(C(=O)NC(C)c3ccccc3)cc(N(C)S(C)(=O)=O)c2)c1F (stereo not drawn) [N1-(4-(2-fluoro-3-methoxybenzylamino)-3-hydroxy-1-phenylbutan-2-yl)-5-(N-methylmethylsulfonamido)-N3-(1-phenylethyl)isophthalamide] | < 300 | < 300 | < 1000 |
| COc1cccc(F)c1CNCC(O)C(Cc1ccccc1)NC(=O)c1cc(C(=O)NC(C)c2ccccc2)cc(N(C)S(C)(=O)=O)c1 (stereo not drawn) [N1-(4-(2-fluoro-6-methoxybenzylamino)-3-hydroxy-1-phenylbutan-2-yl)-5-(N-methylmethylsulfonamido)-N3-(1-phenylethyl)isophthalamide] | < 300 | < 300 | < 1000 |
| CC(NC(=O)c1cc(C(=O)NC(Cc2ccccc2)C(O)CNCc2cccc(CN(C)C)c2)cc(N(C)S(C)(=O)=O)c1)c1ccccc1 (stereo not drawn) [N1-(4-(3-((dimethylamino)methyl)benzylamino)-3-hydroxy-1-phenylbutan-2-yl)-5-(N-methylmethylsulfonamido)-N3-(1-phenylethyl)isophthalamide] | < 300 | > 501 | < 1000 |
